Laboratory results as given in patent publication US20230080819A1, “HERBICIDE COMBINATIONS COMPRISING GLUFOSINATE AND TIAFENACIL” (BASF SE, priority 2020, published 2023).

What was measured:
Assay type in all cases: in vivo
Settings in all cases: 20 DAT
Galium aparine (GALAP) = test: Greenhouse post-emergence weed control, Cleavers
[1] = test system: Amaranthus Palmeri (AMAPA); test: Greenhouse post-emergence weed control, Palmer Amaranth
[2] = test system: Amaranthus tuberculatus (AMATU); test: Greenhouse post-emergence weed control, waterhemp
[3] = test system: Echinochloa crus-galli (ECHCG); test: Greenhouse post-emergence weed control, barnyardgrass

What does the source list for CP(=O)(O)CCC(N)C(=O)O (racemic) [Glufosinate, (2RS)-2-amino-4-[hydroxy(methyl)phosphinoyl]butyric acid]?
Solo % activity (Galium aparine (GALAP); Glufosinate 100 g ai/ha solo): 60%; Solo % activity ([1]; Glufosinate 100 g ai/ha solo): 25%; Solo % activity ([1]; Glufosinate 200 g ai/ha solo): 75%; Solo % activity ([2]; Glufosinate 50 g ai/ha solo, post-emergence, AMATU, 1% MSO): 10%; Solo % activity ([2]; Glufosinate 100 g ai/ha solo, AMATU): 10%; Solo % activity ([2]; Glufosinate 200 g ai/ha solo, AMATU): 70%; Solo % activity ([3]; Glufosinate 50 g ai/ha solo, ECHCG): 10%; Solo % activity ([3]; Glufosinate 100 g ai/ha solo, ECHCG): 25%

Which Solo % activity (Galium aparine (GALAP); Tiafenacil 0.5 g ai/ha solo) does the source give for COC(=O)CCNC(=O)C(C)Sc1cc(-n2c(=O)cc(C(F)(F)F)n(C)c2=O)c(F)cc1Cl (stereo not shown) [Tiafenacil, tiafenacil] here?
The Solo % activity was 0%.

And the Solo % activity ([1]; Tiafenacil 0.15 g ai/ha solo)?
The Solo % activity was 0%.

What about the Solo % activity ([1]; Tiafenacil 1.5 g ai/ha solo) of the same molecule?
Its Solo % activity is 25%.

What about the Solo % activity ([2]; Tiafenacil 1.5 g ai/ha solo, AMATU (Table 2)) of the same molecule?
Its Solo % activity is 15%.

What about the Solo % activity ([2]; Tiafenacil 1.5 g ai/ha solo, AMATU (Table 5)) of the same molecule?
The Solo % activity was 15%.

What about the Solo % activity ([2]; Tiafenacil 1.5 g ai/ha solo, post-emergence, AMATU, 1% MSO) of the same molecule?
Its Solo % activity is 15%.

What about the Solo % activity ([3]; Tiafenacil 0.5 g ai/ha solo, ECHCG (Table 3)) of the same molecule?
Its Solo % activity is 10%.

And the Solo % activity ([3]; Tiafenacil 0.5 g ai/ha solo, ECHCG (Table 7))?
The Solo % activity was 10%.
